Source: article PMC9027509, “Modulation of Paracellular-like Drug Transport across an Artificial Biomimetic Barrier by Osmotic Stress-Induced Liposome Shrinking” (Pharmaceutics, 2022)

Assays:
Assay type in all cases: in vitro ADME
[1] = Permeation across PermeaPad barrier, reversed Franz cell setup, after NaCl pretreatment; settings: for Increase of apparent permeability across the PermeaPad® barrier upon hypo-osmotic pretreatment: hypo-osmotic pretreatment (soaking in hypotonic medium); for Papp: permeation in 300 mOsm PBS pH 6.5, 37 °C, mean ± SD, read-out: Permeability across PermeaPad®; for Increase of permeability in PBS across PermeaPad®: pretreated with NaCl solutions of 50, 150, or 900 mOsm/kg compared to 300 mOsm/kg; for Change of permeability across PermeaPad® after hyper-osmotic pretreatment (in words): pretreatment with 900 mOsm/kg NaCl solution versus 300 mOsm, p < 0.05; for Papp, mean: supplement raw data, mean of replicates A-C
Protocol: (§1) During these studies, phosphate-buffered saline (PBS) was used as the acceptor medium and for the preparation of donor media for permeation experiments. The liposomes were allowed to form within the barrier by soaking the dry sandwich barrier (PermeaPad) in hypo-, iso-, or hyper-osmotic media and compared to the PBS by using NaCl solutions of different osmolalities. PBS was prepared by dissolving 35 mM sodium phosphate dibasic dihydrate and 75 mM sodium phosphate monobasic monohydrate in water. Then, the pH was adjusted to 6.5 by adding 0.1 M HCl or 0.1 M NaOH. Finally, the osmolality was measured on a semi-micro osmometer K-7400 from KNAUER Wissenschaftliche Geräte GmbH (Berlin, Germany), and NaCl was added to obtain an osmolality of 300 mOsm. Solutions of NaCl were prepared by dissolving NaCl in purified water to obtain osmolalities of 50, 150, 250, 300, 350, 450 and 900 mOsm.
(§2) The acyclovir solution was prepared by dissolving 1 mg/mL acyclovir in PBS. […] The stock of calcein was prepared by dissolving 2.8 g calcein in 30 mL water before adjusting the pH to 6.5 with 4 M NaOH (~20 mL), and the osmolality of the stock was adjusted to 300 mOsm with NaCl. […] The saturated celecoxib suspensions were prepared by suspending 1 mg/mL of celecoxib in PBS. The suspension was then sonicated for 10 min and left in the shaking water bath at 50 rpm and 37 °C for 40 h before starting the permeation experiments.
(§3) For the permeation experiments, we used the reversed Franz cell setup from Permegear (Hellertown, PA, USA) with the donor in the bottom chamber (8 mL) and the acceptor in the top chamber (2 mL). The two compartments were either separated by PermeaPad® or a sandwich consisting of two pieces of the support sheet representing the support layer of PermeaPad® (with no lipids). The barriers were kindly donated by InnoMe GmbH (Espelkamp, Germany). A cylindrical stir bar (2 mm diameter × 8 mm length) was spinning at 500 rpm at the bottom of the donor compartment. The temperature of the Franz cells was kept constant at 37 °C by a circulating water system.
(§4) Prior to the permeation experiments, the barrier was exposed to NaCl solutions ranging from 50 to 900 mOsm for 30 min by simply adding 2 mL of the NaCl solution to the top compartment. The NaCl solutions were removed from the top compartment right before initiating the permeation experiments.
(§5) For the permeation experiments, the system was kept assembled after the NaCl pretreatment, and the bottom compartment was filled with 8 mL of donor solution/suspension, followed by the addition of 2 mL PBS to the top compartment. […] All samples were replaced by the same volume of PBS to keep the acceptor volume constant and to maintain sink conditions. Before and after experiments, donor samples were withdrawn to keep track of the mass balance (see the Supplementary Materials).
(§6) The column temperature was 40 °C during measurement. […] All quantification was with a freshly prepared calibration curve in the relevant range.
(§7) The flux was determined by plotting the cumulative amount of a drug compound permeation (dQ) normalized to the permeation area (A) (1 cm^2) against time (dt), with the flux (J) equal to the slope. (1) J=dQ/A·dt
(§8) We assumed that the change in the donor concentration over the experiments was negligible. The apparent permeability (Papp) was equal to the flux normalized to the starting donor concentration (C0). (2) Papp=J/C0

[2] = Permeation across lipid-free support sheets (support layer of PermeaPad), reversed Franz cell setup; settings: for Papp: 300 mOsm PBS pH 6.5, 37 °C, mean ± SD, read-out: Permeability across support layer; for Papp, mean: supplement raw data, Support sheet, 30 min pretreatment, mean of replicates A-C
Protocol: as §1, §2, §3, §4, §5, §6, §7, §8

[3] = Permeability across the lipid layer of PermeaPad calculated from Papp and Psup (Equation 3); settings: for Permeation across lipid layer, fold higher with 50 mOsm/kg pretreatment: 50 mOsm/kg versus 300 mOsm/kg NaCl pretreatment; for Papp: not told, calculated 1/Papp=1/Plip+1/Psup
From the text: The permeation across the lipid layer (Plip) has been calculated using Equation (3) (Di Cagno et al., 2015). The inverse of each permeability constant represents the resistance. The sum of the resistance of the lipid layer and the support layer (Psup) composing the PermeaPad® barrier gives the resistance of the whole barrier. (3) 1/Papp=1/Plip+1/Psup

[4] = pH 6.5, barrier pretreated 30 min with 50 mOsm/kg NaCl solution
[5] = pH 6.5, barrier pretreated 30 min with 300 mOsm/kg NaCl solution
[6] = PermeaPad, osmolality 50, 30 min pretreatment
[7] = PermeaPad, osmolality 150, 30 min pretreatment
[8] = PermeaPad, osmolality 300, 30 min pretreatment
[9] = PermeaPad, osmolality 450, 30 min pretreatment
[10] = PermeaPad, osmolality 900, 30 min pretreatment
[11] = pH 6.5, pretreated 30 min with 50 mOsm/kg NaCl solution
[12] = pH 6.5, pretreated 30 min with 300 mOsm/kg NaCl solution
[13] = pH 6.5, pretreatment with 50 mOsm/kg NaCl solution
[14] = pH 6.5, pretreatment with 300 mOsm/kg NaCl solution

| SMILES | Increase of apparent permeability across the PermeaPad® barrier upon hypo-osmotic pretreatment [1] | Papp [1, 4] [×10⁻⁶ cm/s] | Papp [1, 5] [×10⁻⁶ cm/s] | Increase of permeability in PBS across PermeaPad® [1] | Change of permeability across PermeaPad® after hyper-osmotic pretreatment (in words) [1] | Papp, mean [1, 6] | Papp, mean [1, 7] | Papp, mean [1, 8] | Papp, mean [1, 9] | Papp, mean [1, 10] | Papp [2, 11] [×10⁻⁶ cm/s] | Papp [2, 12] [×10⁻⁶ cm/s] | Papp, mean ([2]; osmolality 50) | Papp, mean ([2]; osmolality 300) | Permeation across lipid layer, fold higher with 50 mOsm/kg pretreatment [3] [fold] | Papp [3, 13] [×10⁻⁶ cm/s] | Papp [3, 14] [×10⁻⁶ cm/s] | further results |
| --- | --- | --- | --- | --- | --- | --- | --- | --- | --- | --- | --- | --- | --- | --- | --- | --- | --- | --- |
| Nc1nc2c(ncn2COCCO)c(=O)[nH]1 [Acyclovir, acyclovir] | ~1.7 fold | 4.07 ± 0.6 | 2.52 ± 0.33 | 1.5–2 fold | increased significantly | 4.068 10-6 | 3.864 10-6 | 2.527 10-6 | 3.76 10-6 | 4.675 10-6 | 32.7 ± 1.87 | 33.2 ± 1.79 | 32.67 10-6 | 33.19 10-6 | 1.7 | 4.71 ± 0.78 | 2.74 ± 0.38 | – |
| Cc1ccc(-c2cc(C(F)(F)F)nn2-c2ccc(S(N)(=O)=O)cc2)cc1 [Celecoxib, celecoxib] | – | 17.9 ± 7.48 | 15.9 ± 4.99 | – | – | 17.95 10-6 | 12.5 10-6 | 15.92 10-6 | 16.62 10-6 | 17.85 10-6 | 46.3 ± 2.23 | 46.2 ± 2.74 | 46.3348 10-6 | 46.16 10-6 | – | 34.2 ± 18.1 | 26.2 ± 11.2 | Change of permeability across PermeaPad® with different pretreatments (in words) ([1]; NaCl pretreatment solutions from 50 to 900 mOsm/kg compared to 300 mOsm/kg): no significant changes; Change of permeation across PermeaPad® upon hypo-osmotic pretreatment (in words) ([1]; hypo-osmotic pretreatment): remained unchanged |
| O=C(O)CN(CC(=O)O)Cc1cc2c(cc1O)Oc1cc(O)c(CN(CC(=O)O)CC(=O)O)cc1C21OC(=O)c2ccccc21 [Calcein, calcein] | approximately 2.0 fold | 0.61 ± 0.04 | 0.35 ± 0.01 | 1.5–2 fold | increased significantly | 0.6055 10-6 | 0.6047 10-6 | 0.3505 10-6 | 0.3884 10-6 | 0.5604 10-6 | 2.51 ± 0.3 | 2.84 ± 0.54 | 2.509 10-6 | 2.835 10-6 | 2.0 | 0.8 ± 0.07 | 0.4 ± 0.02 | Difference in permeation across PermeaPad® between 2 and 30 min pretreatment ([1]; 50 and 300 mOsm/kg NaCl solutions, p > 0.05): no significant differences; Papp, mean ([1]; PermeaPad (2 min pretreatment), osmolality 50): 0.5524 10-6; Papp, mean ([1]; PermeaPad (2 min pretreatment), osmolality 300): 0.3418 10-6; Papp, mean ([1]; PermeaPad, osmolality 250, 30 min pretreatment): 0.3074 10-6; Papp, mean ([1]; PermeaPad, osmolality 350, 30 min pretreatment): 0.3633 10-6 |
